# Results reported in patent US5733913A, “6-Aryl pyrido[2,3-d] pyrimidines and naphthyridines for inhibiting protein tyrosine kinase mediated cellular proliferation” (priority 1995, dated 1998).
# Where two headings read alike, the source gives them in different places.
# Legend:
# [1] = system: V-src kinase; test: V-src kinase assay; format: biochemical; conditions: at 50 μM
# How it was run: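 Baculovirus-expressed v-src or c-src, immunopurified on antibody-coated latex beads, phosphorylated poly GluTyr with 5 μM ATP including [32P]-ATP in Tris pH 7.5/MgCl2. Reaction ran 10 min at room temperature, TCA/pyrophosphate quench, then filtered. Incorporated label counted by liquid scintillation and compared with solvent control.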
# [2] = system: Rat aorta smooth muscle cells (RASMC); test: [3H]-Thymidine incorporation assay in RASMC; format: cell-based; conditions: read-out: Inhibition of Growth Factor Stimulated Uptake of [3H]-thymidine (IC50)
# Method: Cell Culture Rat aorta smooth muscle cells (RASMC) were isolated from the thoracic aorta of rats and explanted according to the method of Ross, J. Cell. Biol., 30:172-186 (1971). Cells were grown in Dulbecco's modified Eagle's medium (DMEM, Gibco) containing 10% fetal calf serum (FBS, Hyclone, Logan, Utah), 1% glutamine (Gibco) and 1% penicillin/streptomycin (Gibco). Cells were identified as smooth muscle cells by their "hill and valley" growth pattern and by fluorescent staining with a monoclonal antibody specific for SMC […] (Sigma). RASMC were used between passages 5 and 20 for all experiments. Test compounds were prepared in dimethylsulfoxide (DMSO) in order to achieve consistency in the vehicle and to ensure compound solubility. Appropriate DMSO controls were simultaneously evaluated with the test compounds. […] RASMC were plated into a 24-well plate (30,000 cells/well) in DMEM with 10% FBS. After 4 days, cells reached confluence and were made quiescent by incubation in DMEM/F12 medium (Gibco) containing 0.2% FBS for another 2 days. […] […] The acid-insoluble fraction was lysed in 0.75 mL 0.25N NaOH and the radioactivity determined by liquid scintillation counting. IC50 values were determined graphically.
structure (smiles),measurement,setting,value
"Cc1ccccc1-c1cc2cnc(N)nc2nc1N [Example 90, 6-o-Tolyl-pyrido[2,3-d]pyrimidine-2,7-diamine]","Inhibition of Protein Tyrosine Kinases, V-src, % Inhibition",[1],16.8%
same,IC50,[2]; FGF stimulated,20 µM
same,IC50,[2]; PDGF stimulated,> 10 µM
